Results published in patent US10597388B2, “Pyridazinone herbicides” (FMC CORPORATION, priority 2014, dated 2020).
Where two headings read alike, the source gives them in different places.

Columns and labels:
Experiment in all cases: Test A greenhouse herbicide test, pre- and postemergence
Assay type in all cases: in vivo
corn (Zea mays) = conditions: Zea mays, 240 h; for Corn plant response rating (crop injury, 0 = no effect, 100 = complete kill) at 125 g/ha / plant injury at 500 g/ha: post-emergence, Postemergence; for Corn plant response rating (crop injury, 0 = no effect, 100 = complete kill) at 125 g/ha: visual rating after approx. 10 d, 0 to 100 scale (0 no effect, 100 complete control); for plant injury at 500 g/ha: 0 is no effect, 100 is complete control
Summary of the method: (§1)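 Seeds sown in loam–sand blend got a preemergence directed soil spray of compound in non-phytotoxic solvent with surfactant. Postemergence treatment was given at 2–10 cm, one- to two-leaf stage. After ~10 d in greenhouse, injury was rated visually vs untreated controls, 0 (no effect) to 100 (complete control).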

[1] = system: barnyardgrass (Echinochloa crus-galli); conditions: Echinochloa crus-galli, 240 h; for pest or weed control at 125 g/ha: 125 g ai/ha; for pest or weed control at 500 g/ha: 500 g ai/ha, 0 to 100 scale
Summary of the method: as §1

[2] = system: wheat (Triticum aestivum); conditions: Triticum aestivum, 240 h; for plant injury at 125 g/ha: 125 g ai/ha; for plant injury at 500 g/ha: 500 g ai/ha, 0 to 100 scale
Summary of the method: as §1

[3] = system: foxtail, giant (giant foxtail, Setaria faberii); conditions: Setaria faberi, 240 h; for pest or weed control at 125 g/ha: 125 g ai/ha; for pest or weed control at 500 g/ha: 500 g ai/ha, 0 to 100 scale
Summary of the method: as §1

[4] = system: pigweed (Amaranthus retroflexus); conditions: Amaranthus retroflexus, 240 h; for pest or weed control at 125 g/ha: 125 g ai/ha; for pest or weed control at 500 g/ha: 500 g ai/ha, 0 to 100 scale
Summary of the method: as §1

kochia (Kochia scoparia) = conditions: Bassia scoparia, 240 h; for pest or weed control at 125 g/ha: 125 g ai/ha; for pest or weed control at 500 g/ha: 500 g ai/ha, 0 to 100 scale
Summary of the method: as §1

[5] = system: ryegrass, Italian (Italian ryegrass, Lolium multiflorum); conditions: Lolium multiflorum, 240 h; for pest or weed control at 125 g/ha: 125 g ai/ha; for pest or weed control at 500 g/ha: 500 g ai/ha, 0 to 100 scale
Summary of the method: as §1

[6] = system: ragweed (common ragweed, Ambrosia elatior); conditions: Ambrosia artemisiifolia, 240 h; for pest or weed control at 125 g/ha: 125 g ai/ha; for pest or weed control at 500 g/ha: 500 g ai/ha, 0 to 100 scale
Summary of the method: as §1

[7] = 500 g ai/ha, 0 to 100 scale, read-out: Corn plant response rating
[8] = post-emergence, Postemergence, visual rating after approx. 10 d, 0 to 100 scale (0 no effect, 100 complete control), read-out: Plant response rating, Barnyardgrass
[9] = post-emergence, Postemergence, 0 is no effect, 100 is complete control, read-out: Barnyardgrass plant response rating
[10] = pre-emergence, Preemergence, 0 to 100 scale where 0 is no effect and 100 is complete control, read-out: Barnyardgrass plant response rating
[11] = pre-emergence, Preemergence, 0 no effect, 100 complete control, read-out: Plant response rating, Barnyardgrass
[12] = post-emergence, Postemergence, visual rating after approx. 10 d, 0 to 100 scale (0 no effect, 100 complete control), read-out: Plant response rating, Wheat
[13] = post-emergence, Postemergence, 0 is no effect, 100 is complete control, read-out: Wheat plant response rating
[14] = post-emergence, Postemergence, visual rating after approx. 10 d, 0 to 100 scale (0 no effect, 100 complete control), read-out: Plant response rating, Foxtail, Giant
[15] = post-emergence, Postemergence, 0 is no effect, 100 is complete control, read-out: Foxtail, Giant plant response rating
[16] = pre-emergence, Preemergence, 0 to 100 scale where 0 is no effect and 100 is complete control, read-out: Foxtail, Giant plant response rating
[17] = pre-emergence, Preemergence, 0 no effect, 100 complete control, read-out: Plant response rating, Foxtail, Giant
[18] = post-emergence, Postemergence, visual rating after approx. 10 d, 0 to 100 scale (0 no effect, 100 complete control), read-out: Plant response rating, Pigweed
[19] = post-emergence, Postemergence, 0 is no effect, 100 is complete control, read-out: Pigweed plant response rating
[20] = pre-emergence, Preemergence, 0 to 100 scale where 0 is no effect and 100 is complete control, read-out: Pigweed plant response rating
[21] = pre-emergence, Preemergence, 0 no effect, 100 complete control, read-out: Plant response rating, Pigweed
[22] = post-emergence, Postemergence, visual rating after approx. 10 d, 0 to 100 scale (0 no effect, 100 complete control), read-out: Plant response rating, Kochia
[23] = post-emergence, Postemergence, 0 is no effect, 100 is complete control, read-out: Kochia plant response rating
[24] = pre-emergence, Preemergence, 0 to 100 scale where 0 is no effect and 100 is complete control, read-out: Kochia plant response rating
[25] = pre-emergence, Preemergence, 0 no effect, 100 complete control, read-out: Plant response rating, Kochia
[26] = post-emergence, Postemergence, visual rating after approx. 10 d, 0 to 100 scale (0 no effect, 100 complete control), read-out: Plant response rating, Ryegrass, Italian
[27] = post-emergence, Postemergence, 0 is no effect, 100 is complete control, read-out: Ryegrass, Italian plant response rating
[28] = pre-emergence, Preemergence, 0 to 100 scale where 0 is no effect and 100 is complete control, read-out: Ryegrass, Italian plant response rating
[29] = pre-emergence, Preemergence, 0 no effect, 100 complete control, read-out: Plant response rating, Ryegrass, Italian
[30] = post-emergence, Postemergence, visual rating after approx. 10 d, 0 to 100 scale (0 no effect, 100 complete control), read-out: Plant response rating, Ragweed
[31] = post-emergence, Postemergence, 0 is no effect, 100 is complete control, read-out: Ragweed plant response rating
[32] = pre-emergence, Preemergence, 0 to 100 scale where 0 is no effect and 100 is complete control, read-out: Ragweed plant response rating
[33] = pre-emergence, Preemergence, 0 no effect, 100 complete control, read-out: Plant response rating, Ragweed

Structure (SMILES): Cc1nn(C)c(=O)c(-c2c(C)oc3c(C)cccc23)c1O [Compound 9, 4-(2,7-dimethyl-3-benzofuranyl)-5-hydroxy-2,6-dimethyl-3(2H)-pyridazinone]
- Corn plant response rating (crop injury, 0 = no effect, 100 = complete kill) at 125 g/ha (corn (Zea mays); 125 g ai/ha): 0%
- plant injury at 500 g/ha (corn (Zea mays); [7]): 0%
- plant injury at 125 g/ha (corn (Zea mays); pre-emergence, Preemergence, 125 g ai/ha, 0 to 100 scale where 0 is no effect and 100 is complete control, read-out: Corn plant response rating): 0%
- Corn plant response rating (crop injury, 0 = no effect, 100 = complete kill) at 500 g/ha (corn (Zea mays); pre-emergence, Preemergence, 500 g ai/ha, 0 to 100 scale, 0 no effect, 100 complete control): 0%
- pest or weed control at 125 g/ha [1, 8]: 10%
- pest or weed control at 500 g/ha [1, 9]: 90%
- pest or weed control at 125 g/ha [1, 10]: 50%
- pest or weed control at 500 g/ha [1, 11]: 100%
- plant injury at 125 g/ha [2, 12]: 0%
- plant injury at 500 g/ha [2, 13]: 0%
- plant injury at 125 g/ha ([2]; pre-emergence, Preemergence, 0 to 100 scale where 0 is no effect and 100 is complete control, read-out: Wheat plant response rating): 0%
- plant injury at 500 g/ha ([2]; pre-emergence, Preemergence, 0 no effect, 100 complete control, read-out: Plant response rating, Wheat): 0%
- pest or weed control at 125 g/ha [3, 14]: 10%
- pest or weed control at 500 g/ha [3, 15]: 90%
- pest or weed control at 125 g/ha [3, 16]: 70%
- pest or weed control at 500 g/ha [3, 17]: 100%
- pest or weed control at 125 g/ha [4, 18]: 0%
- pest or weed control at 500 g/ha [4, 19]: 0%
- pest or weed control at 125 g/ha [4, 20]: 0%
- pest or weed control at 500 g/ha [4, 21]: 0%

Structure (SMILES): Cc1cc(C)c2oc(C)c(-c3c(O)c(C)nn(C)c3=O)c2c1 [Compound 12, 5-hydroxy-2,6-dimethyl-4-(2,5,7-trimethyl-3-benzofuranyl)-3(2H)-pyridazinone]
- pest or weed control at 125 g/ha (kochia (Kochia scoparia); [22]): 0%
- pest or weed control at 500 g/ha (kochia (Kochia scoparia); [23]): 60%
- pest or weed control at 125 g/ha (kochia (Kochia scoparia); [24]): 0%
- pest or weed control at 500 g/ha (kochia (Kochia scoparia); [25]): 10%
- Corn plant response rating (crop injury, 0 = no effect, 100 = complete kill) at 125 g/ha (corn (Zea mays); 125 g ai/ha): 0%
- plant injury at 500 g/ha (corn (Zea mays); [7]): 0%
- pest or weed control at 125 g/ha [5, 26]: 60%
- pest or weed control at 500 g/ha [5, 27]: 70%
- pest or weed control at 125 g/ha [5, 28]: 20%
- pest or weed control at 500 g/ha [5, 29]: 50%
- pest or weed control at 125 g/ha [1, 8]: 0%
- pest or weed control at 500 g/ha [1, 9]: 40%
- pest or weed control at 125 g/ha [1, 10]: 20%
- pest or weed control at 500 g/ha [1, 11]: 80%
- pest or weed control at 125 g/ha [6, 30]: 10%
- pest or weed control at 500 g/ha [6, 31]: 70%
- pest or weed control at 125 g/ha [6, 32]: 0%
- pest or weed control at 500 g/ha [6, 33]: 30%
- plant injury at 125 g/ha [2, 12]: 0%
- plant injury at 500 g/ha [2, 13]: 0%
- pest or weed control at 125 g/ha [3, 14]: 10%
- pest or weed control at 500 g/ha [3, 15]: 70%
- pest or weed control at 125 g/ha [3, 16]: 20%
- pest or weed control at 500 g/ha [3, 17]: 90%
- pest or weed control at 125 g/ha [4, 18]: 30%
- pest or weed control at 500 g/ha [4, 19]: 50%
- pest or weed control at 125 g/ha [4, 20]: 10%
- pest or weed control at 500 g/ha [4, 21]: 60%

Structure (SMILES): CC(=O)Oc1c(C)nn(C)c(=O)c1-c1c(C)oc2c(C)cccc12 [Compound 15, 5-(acetyloxy)-4-(2,7-dimethyl-3-benzofuranyl)-2,6-dimethyl-3(2H)-pyridazinone]
- pest or weed control at 125 g/ha (kochia (Kochia scoparia); [22]): 50%
- pest or weed control at 500 g/ha (kochia (Kochia scoparia); [23]): 50%
- pest or weed control at 125 g/ha (kochia (Kochia scoparia); [24]): 0%
- pest or weed control at 500 g/ha (kochia (Kochia scoparia); [25]): 0%
- Corn plant response rating (crop injury, 0 = no effect, 100 = complete kill) at 125 g/ha (corn (Zea mays); 125 g ai/ha): 0%
- plant injury at 500 g/ha (corn (Zea mays); [7]): 20%
- pest or weed control at 125 g/ha [5, 26]: 50%
- pest or weed control at 500 g/ha [5, 27]: 90%
- pest or weed control at 125 g/ha [5, 28]: 50%
- pest or weed control at 500 g/ha [5, 29]: 100%
- pest or weed control at 125 g/ha [1, 8]: 70%
- pest or weed control at 500 g/ha [1, 9]: 90%
- pest or weed control at 125 g/ha [1, 10]: 20%
- pest or weed control at 500 g/ha [1, 11]: 90%
- pest or weed control at 125 g/ha [6, 30]: 50%
- pest or weed control at 500 g/ha [6, 31]: 50%
- pest or weed control at 125 g/ha [6, 32]: 0%
- pest or weed control at 500 g/ha [6, 33]: 30%
- plant injury at 125 g/ha [2, 12]: 0%
- plant injury at 500 g/ha [2, 13]: 0%
- pest or weed control at 125 g/ha [3, 14]: 70%
- pest or weed control at 500 g/ha [3, 15]: 90%
- pest or weed control at 125 g/ha [3, 16]: 10%
- pest or weed control at 500 g/ha [3, 17]: 70%
- pest or weed control at 125 g/ha [4, 18]: 0%
- pest or weed control at 500 g/ha [4, 19]: 0%
- pest or weed control at 125 g/ha [4, 20]: 0%
- pest or weed control at 500 g/ha [4, 21]: 0%
